Results reported in ChEMBL document CHEMBL1139936, “Annonaceous acetogenin mimics bearing a terminal lactam and their cytotoxicity against cancer cells” (Bioorg Med Chem Lett, 2007).
Calls of active or inactive are those of the source. The rule behind the calls is not given here.

Columns and labels:
[1] = test system: SK-HEP1; experiment: Cytotoxicity against human SKHep1 cells after 48 hrs by MTT assay; assay type: functional, cell-based; settings: for IC50: SK-HEP1, 48 h
[2] = (§1) Cytotoxicity against human BEL-7404 cells after 48 hrs by MTT assay; assay type: functional, cell-based; settings: BEL-7404, 48 h
[3] = test system: B16; experiment: Cytotoxicity against […] B16 cells after 48 hrs by MTT assay; assay type: functional, cell-based; settings: Mus musculus; for IC50: B16, 48 h
[4] = Cytotoxicity against human Chang cells after 48 hrs by MTT assay; assay type: cell-based
[5] = test system: BEL-7404; experiment: as §1; assay type: functional, cell-based

Compound	Activity [1]	IC50 [2] [nM]	Activity [3]	Activity [4]	Activity [5]	IC50 [3] [nM]	IC50 [1] [nM]
CCCCCCCCCC[C@H](O)COCCOC[C@@H](O)CCCCCCCCCCCCC1=C[C@H](C)N(CCCNC(=O)CCCCCNC(=O)CCCCCNC(=O)OC(C)(C)C)C1=O	inactive	2500	inactive	Not Active	–	–	–
CCCCCCCCCC[C@H](O)COCCOC[C@@H](O)CCCCCCCCCCCCC1=C[C@H](C)N(CCCNC(=O)CCCCCNC(=S)Nc2ccc3c(c2)C(=O)OC32c3ccc(O)cc3Oc3cc(O)ccc32)C1=O	inactive	–	inactive	Not Active	inactive	–	–
CCCCCCCCCC[C@H](O)COCCOC[C@@H](O)CCCCCCCCCCCCC1=C[C@H](C)NC1=O	inactive	2200	–	Not Active	–	35	–
CCCCCCCCCC[C@H](O)COCCOC[C@@H](O)CCCCCCCCCCCCC1=C[C@H](C)N(C)C1=O	–	234	–	Not Active	–	13	589
CCCCCCCCCC[C@H](O)COCCOC[C@@H](O)CCCCCCCCCCCCC1=CC(C)(C)N(C)C1=O	–	845	–	Not Active	–	478	583
CCCCCCCCCC[C@H](O)COCCOC[C@@H](O)CCCCCCCCCCCCC1=C[C@H](C)N(CCCNC(=O)CCCCCNC(=O)OC(C)(C)C)C1=O	inactive	3200	inactive	Not Active	–	–	–
CCCCCCCCCC[C@H](O)COCCOC[C@@H](O)CCCCCCCCCCCCC1=C[C@H](C)N(CCCNC(=O)C(F)(F)F)C1=O	inactive	1350	–	Not Active	–	995	–
CCCCCCCCCC[C@H](O)COCCOC[C@@H](O)CCCCCCCCCCCCC1=C[C@H](C)OC1=O	–	41	–	Not Active	–	35	65
CCCCCCCCCC[C@H](O)COCCOC[C@@H](O)CCCCCCCCCCCCC1=CCN(C)C1=O	–	168	–	Not Active	–	168	104
